# Paper PMC8222254, “Self-assembly of an anion receptor with metal-dependent kinase inhibition and potent in vitro anti-cancer properties” (Nature Communications, 2021)
# Where “and” joins values, the source holds several entries; their conditions need not be identical. Equal entries are not always repeated.
# What was measured:
# Assay in all cases: Kinase inhibition screen, cell-free 33P ATP assay at 10 μM
# Assay type in all cases: biochemical
# [1] = biological target: T1, 140 purified human kinases (Homo sapiens, UniProt Q8IYT8)
# T1 sequence (Q8IYT8 1-1036): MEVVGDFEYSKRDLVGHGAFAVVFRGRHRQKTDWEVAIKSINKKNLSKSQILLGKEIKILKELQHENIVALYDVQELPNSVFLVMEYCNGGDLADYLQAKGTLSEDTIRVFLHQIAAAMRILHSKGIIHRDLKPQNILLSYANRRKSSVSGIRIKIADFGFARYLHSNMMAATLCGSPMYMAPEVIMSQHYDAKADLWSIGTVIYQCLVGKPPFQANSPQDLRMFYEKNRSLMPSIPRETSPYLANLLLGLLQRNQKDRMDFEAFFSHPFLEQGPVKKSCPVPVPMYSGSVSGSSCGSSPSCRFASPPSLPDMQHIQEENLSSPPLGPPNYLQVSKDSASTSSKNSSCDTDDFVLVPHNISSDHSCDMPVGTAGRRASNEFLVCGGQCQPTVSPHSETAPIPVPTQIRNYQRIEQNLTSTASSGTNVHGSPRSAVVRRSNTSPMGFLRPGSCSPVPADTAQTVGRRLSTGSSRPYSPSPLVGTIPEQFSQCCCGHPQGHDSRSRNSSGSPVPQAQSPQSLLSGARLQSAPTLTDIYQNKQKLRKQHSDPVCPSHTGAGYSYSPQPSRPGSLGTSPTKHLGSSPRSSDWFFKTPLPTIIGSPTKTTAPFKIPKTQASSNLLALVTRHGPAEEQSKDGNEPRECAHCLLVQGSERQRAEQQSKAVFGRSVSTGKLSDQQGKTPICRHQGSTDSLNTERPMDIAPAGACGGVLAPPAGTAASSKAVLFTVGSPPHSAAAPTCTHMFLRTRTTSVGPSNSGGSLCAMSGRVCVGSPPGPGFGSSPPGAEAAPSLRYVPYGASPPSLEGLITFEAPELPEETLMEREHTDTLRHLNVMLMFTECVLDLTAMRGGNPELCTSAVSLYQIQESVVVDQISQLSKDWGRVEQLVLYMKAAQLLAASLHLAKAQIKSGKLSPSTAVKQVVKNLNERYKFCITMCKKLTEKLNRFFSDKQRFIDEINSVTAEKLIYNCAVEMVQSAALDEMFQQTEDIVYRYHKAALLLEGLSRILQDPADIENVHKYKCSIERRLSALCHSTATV
# Method in brief: (§1)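 Radiometric ^33P ATP cell-free format with purified enzymes; both complexes run at 10 μM in duplicate, results plotted on a kinome map via HGNC symbols.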
# [2] = biological target: 140 purified human kinases (Homo sapiens, UniProt Q86V86)
# Method in brief: as §1
# [3] = biological target: 140 purified human kinases (Homo sapiens, UniProt P06239); details: Lck
# 140 purified human kinases (Homo sapiens, UniProt P06239), sequence (P06239 whole entry): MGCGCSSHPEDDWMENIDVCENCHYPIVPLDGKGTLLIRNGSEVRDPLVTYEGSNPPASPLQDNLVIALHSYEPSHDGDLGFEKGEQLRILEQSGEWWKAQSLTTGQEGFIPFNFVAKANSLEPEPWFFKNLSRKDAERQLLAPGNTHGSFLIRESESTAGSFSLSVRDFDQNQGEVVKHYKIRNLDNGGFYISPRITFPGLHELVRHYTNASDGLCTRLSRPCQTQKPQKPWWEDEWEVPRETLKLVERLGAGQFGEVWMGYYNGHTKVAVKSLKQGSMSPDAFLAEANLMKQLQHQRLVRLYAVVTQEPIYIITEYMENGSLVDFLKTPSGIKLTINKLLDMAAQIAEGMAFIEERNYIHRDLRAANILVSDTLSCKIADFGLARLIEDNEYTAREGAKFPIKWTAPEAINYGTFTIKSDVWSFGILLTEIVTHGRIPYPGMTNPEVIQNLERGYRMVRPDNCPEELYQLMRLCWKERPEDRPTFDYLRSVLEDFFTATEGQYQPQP
# Method in brief: as §1
# [4] = biological target: 140 purified human kinases (Homo sapiens, UniProt Q13627); details: DYRK1A
# Method in brief: as §1
# [5] = biological target: 140 purified human kinases (Homo sapiens, UniProt O96013)
# 140 purified human kinases (Homo sapiens, UniProt O96013), sequence (O96013 whole entry): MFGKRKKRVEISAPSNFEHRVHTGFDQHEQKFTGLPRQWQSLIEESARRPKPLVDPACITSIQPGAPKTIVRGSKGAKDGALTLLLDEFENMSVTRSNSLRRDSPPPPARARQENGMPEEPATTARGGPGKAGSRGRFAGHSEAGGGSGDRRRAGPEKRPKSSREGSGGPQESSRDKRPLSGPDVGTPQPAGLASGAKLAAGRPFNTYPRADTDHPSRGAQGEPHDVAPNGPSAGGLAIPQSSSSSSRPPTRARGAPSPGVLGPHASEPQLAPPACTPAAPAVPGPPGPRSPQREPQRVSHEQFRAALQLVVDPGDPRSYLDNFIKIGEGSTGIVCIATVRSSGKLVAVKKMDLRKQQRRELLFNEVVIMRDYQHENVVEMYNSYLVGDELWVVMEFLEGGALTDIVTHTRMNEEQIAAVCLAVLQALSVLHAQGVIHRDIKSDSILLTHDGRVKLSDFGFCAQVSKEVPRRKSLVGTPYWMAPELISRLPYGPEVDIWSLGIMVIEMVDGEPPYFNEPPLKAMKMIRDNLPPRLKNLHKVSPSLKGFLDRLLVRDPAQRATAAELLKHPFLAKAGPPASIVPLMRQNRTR
# Method in brief: as §1
# [6] = biological target: 140 purified human kinases (Homo sapiens, UniProt Q15759); details: p38b MAPK
# 140 purified human kinases (Homo sapiens, UniProt Q15759), sequence (Q15759 whole entry): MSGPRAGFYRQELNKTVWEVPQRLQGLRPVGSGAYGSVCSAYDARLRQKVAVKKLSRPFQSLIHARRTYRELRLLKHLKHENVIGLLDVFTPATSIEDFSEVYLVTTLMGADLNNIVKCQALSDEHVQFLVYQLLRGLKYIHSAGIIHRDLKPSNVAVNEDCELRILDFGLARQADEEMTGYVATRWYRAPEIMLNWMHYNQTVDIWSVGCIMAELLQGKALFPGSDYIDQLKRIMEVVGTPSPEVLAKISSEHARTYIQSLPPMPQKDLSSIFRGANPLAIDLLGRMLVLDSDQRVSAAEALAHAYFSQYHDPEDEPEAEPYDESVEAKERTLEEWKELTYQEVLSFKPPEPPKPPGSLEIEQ
# Method in brief: as §1
# [7] = biological target: 140 purified human kinases (Homo sapiens, UniProt P11362)
# 140 purified human kinases (Homo sapiens, UniProt P11362), sequence (P11362 22-822): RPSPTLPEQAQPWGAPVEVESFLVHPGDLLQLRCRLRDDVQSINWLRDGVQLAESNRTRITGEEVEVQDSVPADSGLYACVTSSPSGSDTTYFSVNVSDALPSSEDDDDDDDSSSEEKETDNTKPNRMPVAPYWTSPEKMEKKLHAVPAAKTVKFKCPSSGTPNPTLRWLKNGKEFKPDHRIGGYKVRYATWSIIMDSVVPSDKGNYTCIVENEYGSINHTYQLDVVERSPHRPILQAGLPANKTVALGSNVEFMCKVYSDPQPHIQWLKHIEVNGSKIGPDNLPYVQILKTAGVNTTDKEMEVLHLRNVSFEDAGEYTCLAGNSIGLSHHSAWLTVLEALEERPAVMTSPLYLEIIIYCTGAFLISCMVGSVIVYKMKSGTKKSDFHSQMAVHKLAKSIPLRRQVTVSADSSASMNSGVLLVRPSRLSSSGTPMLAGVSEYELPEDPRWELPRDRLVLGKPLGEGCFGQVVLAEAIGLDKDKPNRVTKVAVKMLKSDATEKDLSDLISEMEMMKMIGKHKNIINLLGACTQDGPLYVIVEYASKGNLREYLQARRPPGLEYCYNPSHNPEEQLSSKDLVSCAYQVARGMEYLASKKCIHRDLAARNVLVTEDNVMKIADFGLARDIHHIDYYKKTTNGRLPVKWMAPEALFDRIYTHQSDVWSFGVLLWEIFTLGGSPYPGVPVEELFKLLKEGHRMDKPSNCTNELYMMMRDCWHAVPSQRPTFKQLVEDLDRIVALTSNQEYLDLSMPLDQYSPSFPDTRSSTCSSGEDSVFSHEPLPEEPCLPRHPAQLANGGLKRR
# Method in brief: as §1
compound,measurement,setting,value
[Cu+2].[Cu+2].[Cu+2].c1ccc(-c2csc(NCCN(CCNc3nc(-c4ccccn4)cs3)CCNc3nc(-c4ccccn4)cs3)n2)nc1.c1ccc(-c2csc(NCCN(CCNc3nc(-c4ccccn4)cs3)CCNc3nc(-c4ccccn4)cs3)n2)nc1 [[L2Cu3]6+],% Inhibition Run 1,[1]; ULK2,48%
same,% Inhibition Run 2,[1]; ULK2,52.6%
same,"% Inhibition, Mean",[1]; ULK2,50%
same,mean % activity,[1]; ULK2,50%
same,% activity,"[1]; ULK2, Run 1",52%
same,% activity,"[1]; ULK2, Run 2",47.4%
same,% Inhibition Run 1,[2]; PIM3,54.7%
same,% Inhibition Run 2,[2]; PIM3,54.9%
same,"% Inhibition, Mean",[2]; PIM3,55%
same,mean % activity,[2]; PIM3,45%
same,% activity,"[2]; PIM3, Run 1",45.3%
same,% activity,"[2]; PIM3, Run 2",45.1%
same,% Inhibition Run 1,[3],64.9%
same,% Inhibition Run 2,[3],65.8%
same,"% Inhibition, Mean",[3],65%
same,mean % activity,[3],35%
same,% activity,[3]; Run 1,35.1%
same,% activity,[3]; Run 2,34.2%
same,% Inhibition Run 1,[4],18.5%
same,% Inhibition Run 2,[4],12.4%
same,"% Inhibition, Mean",[4],15%
same,mean % activity,[4],85%
same,% activity,[4]; Run 1,81.5%
same,% activity,[4]; Run 2,87.6%
same,% Inhibition Run 1,[5]; PAK4,23.3%
same,% Inhibition Run 2,[5]; PAK4,36.6%
same,"% Inhibition, Mean",[5]; PAK4,30%
same,mean % activity,[5]; PAK4,70%
same,% activity,"[5]; PAK4, Run 1",76.7%
same,% activity,"[5]; PAK4, Run 2",63.4%
same,% Inhibition Run 1,[6],24.1%
same,% Inhibition Run 2,[6],0.3%
same,"% Inhibition, Mean",[6],12%
same,mean % activity,[6],88%
same,% activity,[6]; Run 1,75.9%
same,% activity,[6]; Run 2,99.7%
same,% Inhibition Run 1,[7]; FGF-R1,63.7%
same,% Inhibition Run 2,[7]; FGF-R1,61.4%
same,"% Inhibition, Mean",[7]; FGF-R1,63%
same,mean % activity,[7]; FGF-R1,37%
same,% activity,"[7]; FGF-R1, Run 1",36.3%
same,% activity,"[7]; FGF-R1, Run 2",38.6%
CC(=O)[O-].CC(=O)[O-].CC(=O)[O-].CC(=O)[O-].CC(=O)[O-].CC(=O)[O-].[Zn+2].[Zn+2].[Zn+2].c1ccc(-c2csc(NCCN(CCNc3nc(-c4ccccn4)cs3)CCNc3nc(-c4ccccn4)cs3)n2)nc1.c1ccc(-c2csc(NCCN(CCNc3nc(-c4ccccn4)cs3)CCNc3nc(-c4ccccn4)cs3)n2)nc1 [[L2Zn3]6+],"% Activation, Mean value",[1]; ULK2,2%
same,"% Inhibition, Mean",[1]; ULK2,-2%
same,mean % activity,[1]; ULK2,102%
same,% activity,"[1]; ULK2, duplicate runs",95% and 109%
same,"% Inhibition, Mean",[2]; PIM3,36%
same,"% Inhibition, Run 1 / Run 2",[2]; PIM3,38% and 35%
same,mean % activity,[2]; PIM3,64%
same,% activity,"[2]; PIM3, duplicate runs",62% and 65%
same,"% Inhibition, Mean",[3],44%
same,"% Inhibition, Run 1 / Run 2",[3],51% and 36%
same,mean % activity,[3],56%
same,% activity,[3]; duplicate runs,49% and 64%
same,"% Inhibition, Mean",[4],28%
same,"% Inhibition, Run 1 / Run 2",[4],34% and 22%
same,mean % activity,[4],72%
same,% activity,[4]; duplicate runs,67% and 78%
same,"% Activation, Mean value",[5]; PAK4,20%
same,"% Inhibition, Mean",[5]; PAK4,-20%
same,mean % activity,[5]; PAK4,120%
same,% Activity Run 1,"[5]; PAK4, 10 µM",110.0%
same,% Activity Run 2,"[5]; PAK4, 10 µM",130.0%
same,% activity,"[5]; PAK4, duplicate runs",110% and 130%
same,"% Inhibition, Mean",[6],-0.45%
same,"% Inhibition, Run 1 / Run 2",[6],0.2% and -1.1%
same,mean % activity,[6],100%
same,% activity,[6]; duplicate runs,100% and 101%
same,"% Inhibition, Mean",[7]; FGF-R1,82%
same,"% Inhibition, Run 1 / Run 2",[7]; FGF-R1,88% and 76%
same,mean % activity,[7]; FGF-R1,18%
same,% Activity inhibition Mean,"[7]; FGF-R1, 10 µM",81.5%
same,% Activity inhibition Run 1,"[7]; FGF-R1, 10 µM",87%
same,% Activity inhibition Run 2,"[7]; FGF-R1, 10 µM",76%
same,% Activity remaining Run 1,"[7]; FGF-R1, 10 µM",13%
same,% Activity remaining Run 2,"[7]; FGF-R1, 10 µM",24%
same,% activity,"[7]; FGF-R1, duplicate runs",13% and 24%
